What was measured:
Format in all cases: functional
[1] = tested on: Bacillus; test: Antibacterial activity against Bacillus acidilatici MCCB 44102 at 100 ug/ml after 24 hrs by paper-disk method
[2] = tested on: Pseudomonas aeruginosa; test: Antibacterial activity against Bacillus aeruginosus MCCB 10104 at 100 ug/ml after 24 hrs by paper-disk method
[3] = tested on: Bacillus subtilis; test: Antibacterial activity against Bacillus subtilis MCCB 26501 at 100 ug/ml after 24 hrs by paper-disk method

Row | Structure (SMILES) | Activity [1] | Activity [2] | Activity [3]
1 | O=C(N[C@H](CO)[C@H](O)c1ccc([N+](=O)[O-])cc1)C(Cl)Cl [CHLORAMPHENICOL] | 13 mm | 13 mm | 13 mm
2 | C=C([C@@H](C[C@H](O)C(C)(C)OC)OC(=O)/C(C)=C\C)[C@@H]1C[C@@H](Cl)[C@](C)(O)[C@H](OC(C)=O)[C@@H]1OC(=O)/C(C)=C\C | 10 mm | <9 mm | 13 mm
